{"source": "patent US9821042B2", "about": "“Use of antagonists of ghrelin or ghrelin receptor to prevent or treat stress-sensitive psychiatric illness” (Massachusetts Institute of Technology, priority 2012, dated 2017)", "key": {"[1]": {"test_system": "adult male Long Evans rats", "assay": "Auditory fear conditioning after repeated intra-BLA infusions of ghrelin receptor agonist", "assay_type": "in vivo, rat", "conditions": "intra-BLA infusion daily for five days", "protocol": "Cannulae Implants. Rats were anesthetized with a cocktail of 10 mg/kg acepromazine, […], and 100 mg/kg ketamine (1 ml/kg; i.p.). Rats were mounted into a dual arm stereotaxic frame (Kopf Instruments; Tujunga, Calif.). The rats were then bilaterally implanted with 23-gauge stainless steel guide cannulae aimed 1 mm above the lateral amygdala: A/P −2.0, M/L+/−5.3, D/V −5.4, relative to brain surface and bregma (45). The cannulae were secured by the placement of three jeweler screws in the skull and dental acrylic. Dummy cannulae extending 1 mm past the tip of the guide cannulae were placed into the guide cannula after surgery and changed every other day. Rats received 0.03 mg/kg of Buprenex (1 ml/kg; s.c.) as post-operative pain management every 12 h for at least 24 h and up to 3 days. All rats recovered for a minimum of 5 days before experimentation commenced.\nDrug Infusion. For intra-cranial infusions, rats were placed in 5-gallon buckets containing bedding. The dummy cannulae were removed and injectors (30G stainless steel cannulae; extending 1 mm beyond the cannulae end) were inserted. The injectors were attached to Hamilton syringes (10 ul; Hamilton Co., Reno, Nev.) via polyethylene tubing, and the syringes were mounted in a Harvard syringe pump (Harvard Apparatus; Holliston, Mass.). Infusions were given at a rate of 0.1 ul/m for 5 m for a total volume of 0.5 ul/side, with 1 m for diffusion, before the injectors were removed and new dummy cannulae were inserted.\n(§1) Pavlovian Fear Conditioning.\nFear memory requires plasticity in numerous brain regions but the basolateral complex of the amygdala (BLA) is particularly important for both formation and storage of learned fear."}, "[2]": {"conditions": "cited from earlier work; for crossing of the blood-brain barrier: in vivo"}, "melanocortin receptors": {"target": "melanocortin receptors", "conditions": "cited from earlier work"}, "[3]": {"test_system": "adult male Long Evans rats", "assay": "Chronic immobilization stress followed by auditory fear conditioning, ghrelin receptor blockade during stress", "conditions": "for long-term fear memory in stressed rats (stress-enhanced fear): daily systemic injection at start of immobilization stress, 4 h/d 14 d", "description": "Drug Preparation. For systemic drug delivery, rats were injected with 1 ml/kg (i.p.) of the appropriate solution. All drugs were solubilized in 0.9% saline (vehicle) such that injection volumes remained constant for each experiment. […] D-Lys3-GHRP-6 (Tocris Biosciences; Minneapolis, Minn.) was diluted to 2.74 ug/ml in vehicle. […] D-Lys3-GHRP-6 was injected within 30 m of the start of immobilization stress or following handling.\nImmobilization Stress. Immobilization stress was administered 4 h per day for 1-14 consecutive days, depending on the experiment. Animals were placed in Decapicone plastic bags (Braintree Scientific; Braintree, Mass.), which were secured at the tail. Stress occurred in a lab room used for no other procedures. All stress sessions were performed between LOAM and 4 PM. Unstressed control rats were handled daily for 30 s. For further parallel control parameters, food was removed from the unstressed rats daily for the same 4 h period in which stressed animals were immobilized and, therefore, without food.\nPavlovian Fear Conditioning. Fear conditioning experiments were conducted in a modified chamber (MED Associates; St. Albans, Vt.) housed in a sound-attenuated cubicle. The animals were placed in individual chambers and infrared video of each session was recorded. Each experiment used auditory fear conditioning wherein rats received 3-5 tone (2 kHz, 85 dB, 10-16s)-footshock (1-2s, 0.4-0.7 mA) pairings in a unique context (metal shock grid floors, chamber fan on, 0.3% PineSol odor, house and room lights on). Animals were allowed 2-3 m to habituate to the chamber before tone-footshock pairings were given at intervals of 1-4 m. Fear memory was tested 24-72 h later by placing the animals in a novel context (white Plexiglas plastic floors, curved Plexiglas wall inserts, fans off, 1% acetic acid odor, house and room lights off). One to 5 m after placement in the novel context, fear to the tone was assessed either by presenting a continuous tone (2 kHz, 85 dB, 8 minutes) or several discrete tones (15 10-16s tones with 1-4 m ISI). Freezing was measured using commercial software (VideoFreeze, MedAssociates, St. Albans, Vt.).\nStatistics. For each fear memory session, conditional freezing was assessed as a percentage of time spent freezing, a probability estimate that is amenable to analysis with parametric statistics. These probability estimates of freezing, along with other measures, were analyzed using ANOVA. Post hoc comparisons in the form of Fisher's PLSD tests were performed after a significant omnibus F-ratio (p<0.05). […] All data where p>0.10 are identified as not significant (ns).\nTo determine whether ghrelin signaling is necessary for stress-related enhancement of fear memory, ghrelin receptor signaling was blocked during repeated stress sessions. […] Twenty-four hours following the final stress or handling session, auditory fear conditioning was administered and fear to the tone was assessed in a subsequent session."}, "GHSR1a": {"target": "GHSR1a (Homo sapiens, UniProt Q92847)", "sequence (Q92847 whole entry)": "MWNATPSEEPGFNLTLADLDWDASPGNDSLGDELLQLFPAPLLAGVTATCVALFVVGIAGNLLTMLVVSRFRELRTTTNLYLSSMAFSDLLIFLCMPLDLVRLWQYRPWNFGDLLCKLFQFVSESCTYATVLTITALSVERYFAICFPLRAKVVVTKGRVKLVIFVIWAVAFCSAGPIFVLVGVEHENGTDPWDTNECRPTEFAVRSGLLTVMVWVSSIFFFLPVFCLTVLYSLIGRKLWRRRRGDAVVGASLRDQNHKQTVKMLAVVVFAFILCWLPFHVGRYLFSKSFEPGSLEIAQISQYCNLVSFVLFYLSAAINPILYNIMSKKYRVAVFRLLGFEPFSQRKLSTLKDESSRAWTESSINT", "conditions": "Tocris Bioscience literature; read-out: IC50 as inhibitor of GHSR1a; cited from earlier work"}, "corticosterone": {"test_system": "corticosterone", "assay": "Plasma corticosterone by ELISA in stressed rats given DLys3", "assay_type": "in vivo, rat", "conditions": "stressed animals, tail bleeds in final 30 m of final stress session", "protocol": "Rats received either daily handling (NS) or immobilization stress (STR). Each day, a systemic injection of either Dlys3-GHRP-6 (Dlys3), an antagonist of GHSR-1a, or saline (VEH) was administered within 30 m of handling or stress initiation. (a) Animals received auditory fear conditioning 24 h after the last stress or handling session. […] (c) In a subset of animals in the STR group, tail bleeds were performed during the final 30 m of the final stress session and plasma corticosterone levels were measured using ELISA. All data are mean±s.e.m. * p<0.05, ˜p<0.10 in planned comparisons.\n(§2) Hormone Assays. Corticosterone, acylated ghrelin, growth hormone and CRF levels were determined using commercial ELISA kits. For corticosterone, non-acidified plasma was diluted 1:25 in assay buffer 15 (Enzo Life Sciences; Farmingdale, N.Y.). For acylated ghrelin, the acidified sample was used for the active ghrelin ELISA (Millipore; Billerica, Mass.) and processed according to the manufacturer's protocol. […] For growth hormone, brain tissue was homogenized 1:6 in lysis buffer and was assayed as per manufacturer's protocol (Millipore; Billerica, Mass.). For CRF, brain tissue collected by micro-dissection was homogenized 1:30 w/v in lysis buffer and assayed per manufacturer's protocol (Kamiya Biomedical Company, Seattle, Wash.)."}, "[4]": {"test_system": "adult male Long Evans rats", "assay": "Auditory Pavlovian fear conditioning after systemic ghrelin receptor agonist injections in nonstressed rats", "assay_type": "in vivo, rat", "conditions": "for fear memory after a single injection: 1 day of injection, conditioning 24 h later; for long-term fear memory (conditional freezing to the tone): conditioning 24 h after last injection, test 48 h later", "protocol": "Subjects. All experiments used adult male Long Evans rats (250-350 g, Taconic, Germantown, N.Y.), housed individually (68-72° F.; 12-h light-dark cycle, 7 AM lights on). Food and water (or 0.9% saline for adrenalectomy experiments) was provided ad libitum. Stressed and unstressed animals were housed in separate cubicles. All procedures were in accordance with the US National Institutes of Health (NIH) Guide for the Care and Use of Laboratory Animals and were approved by the MIT Institutional Animal Care and Use Committee and the Animal Care and Use Review Office of the USAMRMC.\nas §1\nTo determine whether increased activation of the ghrelin receptor is sufficient for enhancement of fear memory, experiments were conducted using pharmacological agonism of GHSR-1a in non-stressed animals. […] MK-0677 (MK: 5d) or saline (VEH: 5d) was systemically administered once a day for five consecutive days in nonstressed rats to determine whether repeated ghrelin receptor agonism in the absence of stress is sufficient to increase fear learning and whether HPA hormones may play a role in this effect. […] One subset of animals was administered auditory fear conditioning 24 h after the last injection."}, "growth hormone release": {"test_system": "growth hormone release", "conditions": "dose of 0.5 mg/ml; cited from earlier work"}, "[5]": {"test_system": "adult male Long Evans rats", "assay": "Elevated plus maze after systemic MK-0677", "assay_type": "in vivo, rat", "conditions": "5 d systemic injections, single 8 minute session 24 h after last injection", "protocol": "Rats received a daily systemic injection of MK-0677 (MK: 5d), an agonist of GHSR-1a, or vehicle (VEH: 5d) for five days at the endogenous ghrelin signaling nadir. Spontaneous freezing (a) and locomotion (b) were assessed in a novel context 24 h after the last injection. A separate group was assessed on the elevated plus maze in a single 8 minute session 24 h after the last injection. Total arm entries (c) and open arm time (d) were measured to assess exploratory behavior and innate anxiety, respectively. (e) Animals received Pavlovian fear conditioning 24 h before beginning daily handling injections of MK-0677 (Post FC MK: 5d) or vehicle (Post FC VEH: 5d) for 5d. […] All data are mean±s.e.m.\nElevated Plus Maze. Rats were tested for anxiety using an elevated plus maze (Hamilton Kinder; Poway, Calif.). The maze had two open arms (51 cm×12 cm each) and was located in a moderately lit room. Open arms consisted of black Plexiglas floors and no walls. The closed arms had black Plexiglas walls 40 cm high. […] Automated software (Motor Monitor 4.14) recorded the second by second movements of the animals while the experimenter made observations in an obscured corner. Each session lasted 8 m and both the observer and the software recorded the latency to exit the first arm and the number of entries into the open and closed arms. Additionally, the software recorded time spent in the each region of the maze. […]"}, "CRF": {"test_system": "CRF", "assay": "Brain CRF levels by ELISA after systemic MK-0677", "assay_type": "in vivo, rat", "conditions": "5 d systemic injections, 24 h after final injection", "protocol": "Rats received daily systemic injections of MK-0677 (MK: 5d), a GHSR-1a agonist, or saline (VEH: 5d) for five days at the endogenous ghrelin signaling nadir. (b) One group underwent auditory fear conditioning 24 h following the final injection. Fear acquisition was assessed by monitoring freezing levels. (c) Conditional freezing to the tone was assessed in a novel context 48 h following fear conditioning. A separate group was sacrificed 24 h following the final injection and microdissections of hypothalamus and amygdala performed. Brain CRF levels were measured using ELISA (d) hypothalamus, (e), basolateral complex of the amygdala). * p<0.05, ** p<0.01, ˜p<0.10 in planned comparisons.\nas §2, with “For CRF, brain tissue collected by micro-dissection was homogenized 1:30 w/v in lysis buffer and assayed per manufacturer's protocol (Kamiya Biomedical Company, Seattle, Wash.).” left out"}, "[6]": {"conditions": "systemic injection once a day for 5 days, nonstressed rats"}}, "note": "Like-named read-outs stand apart in the source and are kept apart here. Non-standard residues stand in square brackets, D forms with d. No end group written: not given here.", "data": [{"compound": "acylated ghrelin: acylated (bioactive) form of the peptide hormone ghrelin, infused into the BLA", "values": [{"measurement": "long-term fear memory", "setting": "[1]; listed as bioactive ghrelin", "value": "replicated"}, {"measurement": "half-life", "setting": "[2]; ref 29", "value": "~30", "unit": "m"}]}, {"compound": "H[dW][dK]W[dF]K-NH2 [D-Lys3-GHRP-6]", "values": [{"measurement": "crossing of the blood-brain barrier", "setting": "[2]", "value": "crosses the blood brain barrier"}, {"measurement": "crossing of the blood-brain barrier", "setting": "[2]; listed as DLys3", "value": "crosses the blood-brain barrier"}, {"measurement": "Ki", "setting": "melanocortin receptors", "value": "26 to 120", "unit": "µM"}, {"measurement": "long-term fear memory in stressed rats (stress-enhanced fear)", "setting": "[3]; listed as DLys3", "value": "completely reversed stress-enhanced fear"}, {"measurement": "long-term fear memory in stressed rats (stress-enhanced fear)", "setting": "[3]; listed as Dlys-3", "value": "sufficient to prevent stress-related enhancement of fear memory"}, {"measurement": "stress enhancement of fear acquisition", "setting": "[3]; daily systemic injection during immobilization stress", "value": "not seen"}, {"measurement": "fear memory in nonstressed controls", "setting": "[3]; daily systemic injection with daily handling", "value": "no effect"}, {"measurement": "IC50", "setting": "GHSR1a", "value": 900, "unit": "nM"}, {"measurement": "stress-induced HPA activation as corticosterone secretion", "setting": "corticosterone", "value": "did not blunt"}]}, {"compound": "CC(C)(N)C(=O)N[C@H](COCc1ccccc1)C(=O)N1CCC2(CC1)CN(S(C)(=O)=O)c1ccccc12", "note": "[MK-0677]", "values": [{"measurement": "freezing during fear conditioning", "setting": "[1]", "value": "not altered"}, {"measurement": "long-term fear memory", "setting": "[1]", "value": "significantly enhanced"}, {"measurement": "long-term fear memory", "setting": "[1]; listed as MK677", "value": "sufficient to enhance fear memory"}, {"measurement": "fear memory after a single injection", "setting": "[4]", "value": "trend towards impairment"}, {"measurement": "fear memory after a single injection", "setting": "[4]; listed as MK677", "value": "no effect"}, {"measurement": "expression of previously acquired auditory fear memory", "setting": "[4]; conditioning 24 h before 5 d of injections, test 24 h after last injection", "value": "not affected"}, {"measurement": "fear memory after 3 days of injections", "setting": "[4]; daily injections for 3 days", "value": "no effect"}, {"measurement": "fear memory after a single injection followed by 14 d delay", "setting": "[4]; single injection, 14 d in vivarium before conditioning", "value": "not sufficient to enhance fear"}, {"measurement": "fear acquisition during conditioning (freezing)", "setting": "[4]; [6]", "value": "did not alter"}, {"measurement": "long-term fear memory (conditional freezing to the tone)", "setting": "[4]; [6]", "value": "significantly enhanced"}, {"measurement": "long-term fear memory (conditional freezing to the tone)", "setting": "[4]; systemic injection once a day for 5 days, nonstressed rats, listed as MK677", "value": "increased fear memory"}, {"measurement": "growth hormone release", "setting": "growth hormone release", "value": "significant and prolonged increases"}, {"measurement": "tolerability", "setting": "growth hormone release", "value": "well-tolerated"}, {"measurement": "crossing of the blood-brain barrier", "setting": "[2]", "value": "readily crosses the blood-brain barrier"}, {"measurement": "half-life", "setting": "[2]; ref 30", "value": "5 to 6", "unit": "h"}, {"measurement": "half-life", "setting": "[2]; refs 47, 48", "value": "over six"}, {"measurement": "innate anxiety (open arm time)", "setting": "[5]", "value": "not altered"}, {"measurement": "amygdalar CRF level", "setting": "CRF", "value": "trend for repeated ghrelin receptor activation to decrease"}, {"measurement": "hypothalamic CRF level", "setting": "CRF", "value": "no change"}]}]}
